Structures can show the parent of a compound that is named as a salt. Where two headings read alike, the source gives them in different places.
Columns and labels:
Test in all cases: AK assay 384-well format, Prestwick library screening
E. coli = assay type: cell-based, Escherichia coli; details: 50 μM final drug concentration; for fold induction at 50 µM: Escherichia coli, 3 h
[1] = tested on: S. aureus strain USA300-0114; assay type: cell-based, Staphylococcus aureus; details: 50 μM final drug concentration; for fold induction at 50 µM: Staphylococcus aureus, USA300, 3 h
E. cloacae = assay type: cell-based, Enterobacter cloacae; details: 50 μM final drug concentration; for fold induction at 50 µM: Enterobacter cloacae, 3 h
P. aeruginosa = assay type: cell-based, Pseudomonas aeruginosa; details: 50 μM final drug concentration; for fold induction at 50 µM: Pseudomonas aeruginosa, 3 h
[2] = tested on: A. baumannii strain 98-37-09; assay type: cell-based, Acinetobacter baumannii; details: 50 μM final drug concentration; for fold induction at 50 µM: Acinetobacter baumannii, 983709, 3 h
K. pneumoniae = assay type: cell-based, Klebsiella pneumoniae; details: 50 μM final drug concentration; for fold induction at 50 µM: Klebsiella pneumoniae, 3 h
E. faecium = assay type: cell-based, Enterococcus faecium; details: 50 μM final drug concentration; for fold induction at 50 µM: Enterococcus faecium, 3 h
[3] = cutoff for positive-scoring molecules 3-fold increase, read-out: AK-based Prestwick Library Screening Results, E. coli (fold increase in extracellular AK activity)
[4] = cutoff for positive-scoring molecules 3-fold increase, read-out: AK-based Prestwick Library Screening Results, S. aureus (fold increase in extracellular AK activity)
[5] = cutoff for positive-scoring molecules 3-fold increase, read-out: AK-based Prestwick Library Screening Results, E. cloacae (fold increase in extracellular AK activity)
[6] = cutoff for positive-scoring molecules 3-fold increase, read-out: AK-based Prestwick Library Screening Results, P. aeruginosa (fold increase in extracellular AK activity)
[7] = cutoff for positive-scoring molecules 3-fold increase, read-out: AK-based Prestwick Library Screening Results, A. baumannii (fold increase in extracellular AK activity)
[8] = cutoff for positive-scoring molecules 3-fold increase, read-out: AK-based Prestwick Library Screening Results, K. pneumoniae (fold increase in extracellular AK activity)
[9] = cutoff for positive-scoring molecules 3-fold increase, read-out: AK-based Prestwick Library Screening Results, E. faecium (fold increase in extracellular AK activity)
[10] = 384-well format, cutoff for positive-scoring molecules 3-fold increase, read-out: AK-based Prestwick Library Screening Results, S. aureus (increase in extracellular AK activity)
[11] = 384-well format, cutoff for positive-scoring molecules 3-fold increase, read-out: AK-based Prestwick Library Screening Results, E. cloacae (increase in extracellular AK activity)
[12] = 384-well format, cutoff for positive-scoring molecules 3-fold increase, read-out: AK-based Prestwick Library Screening Results, P. aeruginosa (increase in extracellular AK activity)
[13] = 384-well format, cutoff for positive-scoring molecules 3-fold increase, read-out: AK-based Prestwick Library Screening Results, A. baumannii (increase in extracellular AK activity)
[14] = 384-well format, cutoff for positive-scoring molecules 3-fold increase, read-out: AK-based Prestwick Library Screening Results, K. pneumoniae (increase in extracellular AK activity)
[15] = 384-well format, cutoff for positive-scoring molecules 3-fold increase, read-out: AK-based Prestwick Library Screening Results, E. faecium (increase in extracellular AK activity)

## NC[C@@H]1O[C@H](O[C@H]2[C@@H](O)[C@H](O[C@@H]3[C@@H](O)[C@H](N)C[C@H](N)[C@H]3O[C@H]3O[C@H](CO)[C@@H](O)[C@H](O)[C@H]3N)O[C@@H]2CO)[C@H](N)[C@@H](O)[C@@H]1O [Paromomycin sulfate]
E. coli; [3]
  fold induction at 50 µM: 1.4
[1]; [4]
  fold induction at 50 µM: 1.3
E. cloacae; [5]
  fold induction at 50 µM: 1.4
P. aeruginosa; [6]
  fold induction at 50 µM: 1
[2]; [7]
  fold induction at 50 µM: 1.5
K. pneumoniae; [8]
  fold induction at 50 µM: 1
E. faecium; [9]
  fold induction at 50 µM: 0.9

## Fc1ccc([C@@H]2CCNC[C@H]2COc2ccc3c(c2)OCO3)cc1 [Paroxetine Hydrochloride]
E. coli; [3]
  fold induction at 50 µM: 1.4
[1]; [4]
  fold induction at 50 µM: 1.4
E. cloacae; [5]
  fold induction at 50 µM: 1.6
P. aeruginosa; [6]
  fold induction at 50 µM: 1.3
[2]; [7]
  fold induction at 50 µM: 1.3
K. pneumoniae; [8]
  fold induction at 50 µM: 1.2
E. faecium; [9]
  fold induction at 50 µM: 0.9

## CN1C(C)(C)CCCC1(C)C [Pempidine tartrate]
E. coli; planktonic, […], read-out: AK-based Prestwick Library Screening Results, E. coli (fold increase in extracellular AK activity)
  fold induction at 50 µM: 1.1
[1]; planktonic, […], read-out: AK-based Prestwick Library Screening Results, S. aureus (fold increase in extracellular AK activity)
  fold induction at 50 µM: 1.1
E. cloacae; planktonic, […], read-out: AK-based Prestwick Library Screening Results, E. cloacae (fold increase in extracellular AK activity)
  fold induction at 50 µM: 1.5
P. aeruginosa; planktonic, […], read-out: AK-based Prestwick Library Screening Results, P. aeruginosa (fold increase in extracellular AK activity)
  fold induction at 50 µM: 1.1
[2]; planktonic, […], read-out: AK-based Prestwick Library Screening Results, A. baumannii (fold increase in extracellular AK activity)
  fold induction at 50 µM: 1.1
K. pneumoniae; planktonic, […], read-out: AK-based Prestwick Library Screening Results, K. pneumoniae (fold increase in extracellular AK activity)
  fold induction at 50 µM: 1
E. faecium; planktonic, […], read-out: AK-based Prestwick Library Screening Results, E. faecium (fold increase in extracellular AK activity)
  fold induction at 50 µM: 1

## CC(C)(C)NC[C@H](O)COc1ccccc1C1CCCC1 [Penbutolol sulfate]
E. coli; [3]
  fold induction at 50 µM: 0.5
[1]; [4]
  fold induction at 50 µM: 0.4
E. cloacae; [5]
  fold induction at 50 µM: 0.4
P. aeruginosa; [6]
  fold induction at 50 µM: 0.5
[2]; [7]
  fold induction at 50 µM: 0.4
K. pneumoniae; [8]
  fold induction at 50 µM: 0.5
E. faecium; [9]
  fold induction at 50 µM: 0.8

## N=C(N)c1ccc(OCCCCCOc2ccc(C(=N)N)cc2)cc1 [Pentamidine isethionate]
E. coli; planktonic, cutoff for positive 3-fold increase, read-out: AK-based Prestwick Library Screening Results, E. coli (fold increase in extracellular AK activity)
  fold induction at 50 µM: 1.4
[1]; planktonic, cutoff for positive 3-fold increase, read-out: AK-based Prestwick Library Screening Results, S. aureus (fold increase in extracellular AK activity)
  fold induction at 50 µM: 1.9
E. cloacae; planktonic, cutoff for positive 3-fold increase, read-out: AK-based Prestwick Library Screening Results, E. cloacae (fold increase in extracellular AK activity)
  fold induction at 50 µM: 1.4
P. aeruginosa; planktonic, cutoff for positive 3-fold increase, read-out: AK-based Prestwick Library Screening Results, P. aeruginosa (fold increase in extracellular AK activity)
  fold induction at 50 µM: 1.2
[2]; planktonic, cutoff for positive 3-fold increase, read-out: AK-based Prestwick Library Screening Results, A. baumannii (fold increase in extracellular AK activity)
  fold induction at 50 µM: 1.2
K. pneumoniae; planktonic, cutoff for positive 3-fold increase, read-out: AK-based Prestwick Library Screening Results, K. pneumoniae (fold increase in extracellular AK activity)
  fold induction at 50 µM: 1.2
E. faecium; planktonic, cutoff for positive 3-fold increase, read-out: AK-based Prestwick Library Screening Results, E. faecium (fold increase in extracellular AK activity)
  fold induction at 50 µM: 1.4

## O=C(O)CN(CCN(CC(=O)O)CC(=O)O)CCN(CC(=O)O)CC(=O)O [Pentetic acid]
E. coli; [3]
  fold induction at 50 µM: 1.3
[1]; [4]
  fold induction at 50 µM: 1.4
E. cloacae; [5]
  fold induction at 50 µM: 1.5
P. aeruginosa; [6]
  fold induction at 50 µM: 1.2
[2]; [7]
  fold induction at 50 µM: 1.3
K. pneumoniae; [8]
  fold induction at 50 µM: 1.1
E. faecium; [9]
  fold induction at 50 µM: 1

## C[N+]1(CCCCC[N+]2(C)CCCC2)CCCC1.O=C([O-])C(O)C(O)C(=O)O.O=C([O-])C(O)C(O)C(=O)O [Pentolinium bitartrate]
E. coli; 384-well format, […]
  AK-based Prestwick Library Screening Results, E. coli (increase in extracellular AK activity): 0.8
[1]; 384-well format, […]
  AK-based Prestwick Library Screening Results, S. aureus (increase in extracellular AK activity): 0.7
E. cloacae; 384-well format, […]
  AK-based Prestwick Library Screening Results, E. cloacae (increase in extracellular AK activity): 1.1
P. aeruginosa; 384-well format, […]
  AK-based Prestwick Library Screening Results, P. aeruginosa (increase in extracellular AK activity): 1.0
[2]; 384-well format, […]
  AK-based Prestwick Library Screening Results, A. baumannii (increase in extracellular AK activity): 1.0
K. pneumoniae; 384-well format, […]
  AK-based Prestwick Library Screening Results, K. pneumoniae (increase in extracellular AK activity): 0.7
E. faecium; 384-well format, […]
  AK-based Prestwick Library Screening Results, E. faecium (increase in extracellular AK activity): 0.9

## CC(=O)CCCCn1c(=O)c2c(ncn2C)n(C)c1=O [Pentoxifylline]
E. coli; 384-well format, cutoff for positive-scoring molecules 3-fold increase, read-out: AK-based Prestwick Library Screening Results, E. coli (increase in extracellular AK activity)
  fold induction at 50 µM: 0.8
[1]; [10]
  fold induction at 50 µM: 0.8
E. cloacae; [11]
  fold induction at 50 µM: 1.1
P. aeruginosa; [12]
  fold induction at 50 µM: 0.8
[2]; [13]
  fold induction at 50 µM: 0.9
K. pneumoniae; [14]
  fold induction at 50 µM: 0.7
E. faecium; [15]
  fold induction at 50 µM: 0.9

## C1CCc2nnnn2CC1 [Pentylenetetrazole]
E. coli; 384-well format, […], read-out: AK-based Prestwick Library Screening Results, E. coli (increase in extracellular AK activity)
  fold induction at 50 µM: 0.6
[1]; [10]
  fold induction at 50 µM: 0.7
E. cloacae; [11]
  fold induction at 50 µM: 0.6
P. aeruginosa; [12]
  fold induction at 50 µM: 0.7
[2]; [13]
  fold induction at 50 µM: 0.6
K. pneumoniae; [14]
  fold induction at 50 µM: 0.5
E. faecium; [15]
  fold induction at 50 µM: 1
